Tested on: Arabidopsis ecotype Columbia (Col-0)
Experiment: Arabidopsis root growth inhibition assay
Settings: 6 days
Description: Phytotoxicity of other major dicamba decarboxylaed products was evaluated using Arabidopsis root growth inhibition assay. 4-chloro-3-methoxy phenol was purchased from Biogene Organics, Inc. (catalog number U06-642-79). 2,5-dichloro phenol was purchased from Sigma-Aldrich (catalog number D70007). Briefly, seeds of Arabidopsis ecotype Columbia (Col-0) were surface sterilized with 70% (v/v) ethanol for 5 minutes and 10% (v/v) bleach for 15 minutes. After being washed three times with distilled water, the seeds were germinated on 1× Murashige and Skoog (MS) medium with a pH of 5.7, 3% (w/v) sucrose, and 0.8% (w/v) agar. After incubation for 3.5 days, the seedlings were transferred to 1×MS medium containing B5 vitamin, 3% (w/v) sucrose, 1.2% (w/v) agar, and filter sterilized compounds was added to the media at 60° C. The concentrations of compounds including dicamba were 0 μM, 1.0 μM, and 10 μM. The seedlings were placed vertically, and the temperature maintained at 23° C. to allow root growth along the surface of the agar, with a photoperiod of 16 h of light and 8 h of dark.

Oc1cc(Cl)ccc1Cl [2,5-dichloro phenol]
Arabidopsis root growth (1.0 uM in MS medium): did not have any effect | Arabidopsis root growth (10 uM in MS medium): did not have any effect

— patent US20140289906A1, “Compositions Having Dicamba Decarboxylase Activity and Methods of Use” (priority 2013, published 2014)
